Source: ChEMBL document CHEMBL1130481, “Structure-activity relationships of carbocyclic influenza neuraminidase inhibitors” (Bioorg Med Chem Lett, 1997)

Legend:
[1] = target: Neuraminidase (Influenza A virus (A/Puerto Rico/8/1934(H1N1)), UniProt P03468); test: Inhibition of neuraminidase of influenza A/PR/8/34(H1N1)
[2] = test system: unidentified influenza virus; test: Concentration required for 50% inhibition of influenza A/WS/33 by plaque reduction assay; assay type: functional, organism-based

Sequence of Neuraminidase (Influenza A virus (A/Puerto Rico/8/1934(H1N1)), UniProt P03468) (P03468 whole entry): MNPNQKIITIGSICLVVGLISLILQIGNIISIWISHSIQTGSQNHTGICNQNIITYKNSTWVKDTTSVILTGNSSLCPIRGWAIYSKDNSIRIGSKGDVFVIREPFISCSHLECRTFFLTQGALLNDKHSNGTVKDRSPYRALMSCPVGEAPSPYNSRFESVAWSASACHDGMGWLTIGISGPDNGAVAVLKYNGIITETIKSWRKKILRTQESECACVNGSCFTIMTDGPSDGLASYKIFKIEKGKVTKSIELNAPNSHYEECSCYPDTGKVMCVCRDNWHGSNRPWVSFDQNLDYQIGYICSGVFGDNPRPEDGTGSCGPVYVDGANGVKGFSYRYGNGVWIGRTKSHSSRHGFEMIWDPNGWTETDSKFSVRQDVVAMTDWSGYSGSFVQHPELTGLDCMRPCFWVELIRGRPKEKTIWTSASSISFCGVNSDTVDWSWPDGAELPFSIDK

`CC(=O)N[C@@H]1[C@@H](N)CC(C(=O)O)=C[C@H]1Oc1ccccc1` was tested, and the IC50 [1] was 530 nM.

Work on `CCCO[C@@H]1C=C(C(=O)O)C[C@H](N=C(N)NC)[C@H]1NC(C)=O` yielded an IC50 [2] of 1.6 nM and an IC50 [1] of 4.6 nM.

With `CC(=O)N[C@@H]1[C@@H](N)CC(C(=O)O)=C[C@H]1OC1CCCCC1` the IC50 [1] was 60 nM.

In the case of `CCCO[C@@H]1C=C(C(=O)O)C[C@H](N)[C@H]1NC(=O)C(F)(F)F`, the IC50 [2] is reported as 22000 nM and the IC50 [1] is reported as 1400 nM.

`CCCO[C@@H]1C=C(C(=O)O)C[C@H](N)[C@H]1NS(C)(=O)=O` gave an IC50 [1] of 25000 nM.

Molecule `CC(=O)N[C@@H]1[C@@H](N)CC(C(=O)O)=C[C@H]1OCCC(F)(F)F` has an IC50 [1] of 225 nM.

Work on `C=CCO[C@@H]1C=C(C(=O)O)C[C@H](N)[C@H]1NC(C)=O` yielded an IC50 [1] of 2200 nM.

Molecule `CCCO[C@@H]1C=C(C(=O)O)C[C@H](NC=N)[C@H]1NC(C)=O` has an IC50 [1] of 140 nM.

In the case of `CCCO[C@@H]1C=C(C(=O)O)C[C@H](N)[C@H]1NC(=O)CC`, the IC50 [1] is reported as 1500 nM.

`CC(=O)N[C@@H]1[C@@H](N)CC(C(=O)O)=C[C@H]1OC1CCCC1` gave an IC50 [1] of 22 nM.

In the case of `CCCO[C@@H]1C=C(C(=O)O)C[C@H](N)[C@H]1NC(C)=O`, the IC50 [2] is reported as 44000 nM and the IC50 [1] is reported as 130 nM.

For `COCO[C@@H]1C=C(C(=O)O)C[C@H](N)[C@H]1NC(C)=O`, the IC50 [1] was 2000 nM.

In the case of `CCCO[C@@H]1C=C(C(=O)O)C[C@H](N=C(N)N)[C@H]1NC(C)=O`, the IC50 [2] is reported as 44 nM and the IC50 [1] is reported as 1.8 nM.
